What was measured:
[1] = tested on: mouse neocortical neurons; details: cited from earlier work; for induction of apoptosis on exposure: neurons, exposure to the K+ ionophore or K+-channel opener
[2] = molecular target: hKQT2 and hKQT3 (Homo sapiens, UniProt O43525+O43526); details: co-expression in oocytes, current mimics native M-currents; cited from earlier work
[3] = tested on: SN56 cells; details: attenuation of the potassium current; cited from earlier work
[4] = molecular target: T1, human brain-derived potassium channel subunit SEQ ID NO:3 (hKvQT2) (Homo sapiens, UniProt O43526, N780T); test: cell-based
T1 construct: EGFP (Enhanced Green Fluorescent Protein), from pEGFPC1; expressed in transfected cells; host or cells: COS-7 and HEK 293 cells, transient transfection
Description: transfection: HEK293 cells (ATCC, Rockville, Md.) were transfected as follows: 70 ul LipoTAXI (Stratagene, La Jolla, Calif.) was added to a polystyrene tube and gently mixed. Two (2) ug pEFGPC1 (control vector used to trace the transfected cells) and 5 ug of one of the constructs (SEQ ID NO:2 in pcDNA3 or SEQ ID NO:4 in pcDNA3) was added to the lipid/media mixture and incubated for 20 minutes. Two (2)mls of OPTI-MEM I was then added and mixed gently. Cells to be transfected were washed once with OPTI-MEM I, and the 3 ml of lipid-DNA mixture were added to the washed cells and incubated at 37° C. 5% CO2 for 4-6 hours. Cells were then refed with 10% Heat Inactivated FBS (Biowhittaker, Walkersville, Md.) DMEM (Mediatech 10-017-CV). For co-expression experiments, 2 ug pEGFPC1(control vector), 5 ug of pcDNA3QT2L ((SEQ ID NO:2 in pcDNA3) and 20 ug pcDNA3QT2S (SEQ ID NO:4 in pcDNA3) were used in this protocol. Cells were diluted and replated onto 35 mm dishes 24-48 hours prior to patch clamping.
COS-7 cells (ATCC, Rockville Md.) were transfected as follows: 25 ul DMRIE-C Reagent (Gibco BRL/Life Technologies, Gaithersburg, Md.) were added to 2 ml of OPTI-MEM I (Gibco BRL/Life Technologies, Gaithersburg, Md.), mixed gently and incubated for 20 minuets. Two (2) ug pEGPPC1QT2L (EGFP fused to the N-terminus of SEQ ID NO:2) and 7.3 ug pcDNA3 or 9.3 ug pcDNA3QT2S (SEQ ID NO:4 in pcDNA3) (for a 5 molar excess over hKvQT2L (SEQ ID NO:2) construct) were added to lipid/media mixture, mixed gently and incubated for 20 minutes. Two (2) mls of OPTI-MEM I was then added to this and mixed gently. Cells to be transfected were washed once with OPTI-MEM I, and the 4 ml of lipid-DNA mixture were added to the washed cells and incubated at 37° C. 5% CO2 for 4-6 hours. Cells were then refed with 10% Heat Inactivated FBS (Biowhittaker, Walkersville, Md.) DMEM (Mediatech 10-017-CV). Cells were trypsinized, diluted and replated onto 35 mm dishes 24-48 hours prior to patch clamping.
electrophysiology: All recordings were obtained using the conventional whole cell configuration (Hammill, O. P., et al., Pfluger Arch., 391, 85-100, 1981). Cells were transfected with 5 ug pcDNA3 or 2 ug pEGFPQT2L (EGFP fused to the N-terminus of SEQ ID NO:2) 24-48 hours prior to experiments. Extracellular solution was (mM): 160 NaCl, 4.5 KCl, 1 MgC2, 2 CaCl2, 5 HEPES, 5 glucose (pH: 7.4 by NaOH, ˜325 mOsm). In K+ selectivity experiments, equimolar Na^+ was substituted by K^+. Pipette solution was (mM): 150 K-aspartate, 2 MgCl2, 1 CaCl2, 5 HEPES, 1.6 EGTA (pH: 7.2 by KOH, ˜305 mOsm). Voltage protocols were implemented and data acquired using pClamp 6.0 software (Axon Instr., CA). Solution changes and drug application with a local perfusion system.

T1 sequence (O43526 1-854 isoform O43526-2 N762T): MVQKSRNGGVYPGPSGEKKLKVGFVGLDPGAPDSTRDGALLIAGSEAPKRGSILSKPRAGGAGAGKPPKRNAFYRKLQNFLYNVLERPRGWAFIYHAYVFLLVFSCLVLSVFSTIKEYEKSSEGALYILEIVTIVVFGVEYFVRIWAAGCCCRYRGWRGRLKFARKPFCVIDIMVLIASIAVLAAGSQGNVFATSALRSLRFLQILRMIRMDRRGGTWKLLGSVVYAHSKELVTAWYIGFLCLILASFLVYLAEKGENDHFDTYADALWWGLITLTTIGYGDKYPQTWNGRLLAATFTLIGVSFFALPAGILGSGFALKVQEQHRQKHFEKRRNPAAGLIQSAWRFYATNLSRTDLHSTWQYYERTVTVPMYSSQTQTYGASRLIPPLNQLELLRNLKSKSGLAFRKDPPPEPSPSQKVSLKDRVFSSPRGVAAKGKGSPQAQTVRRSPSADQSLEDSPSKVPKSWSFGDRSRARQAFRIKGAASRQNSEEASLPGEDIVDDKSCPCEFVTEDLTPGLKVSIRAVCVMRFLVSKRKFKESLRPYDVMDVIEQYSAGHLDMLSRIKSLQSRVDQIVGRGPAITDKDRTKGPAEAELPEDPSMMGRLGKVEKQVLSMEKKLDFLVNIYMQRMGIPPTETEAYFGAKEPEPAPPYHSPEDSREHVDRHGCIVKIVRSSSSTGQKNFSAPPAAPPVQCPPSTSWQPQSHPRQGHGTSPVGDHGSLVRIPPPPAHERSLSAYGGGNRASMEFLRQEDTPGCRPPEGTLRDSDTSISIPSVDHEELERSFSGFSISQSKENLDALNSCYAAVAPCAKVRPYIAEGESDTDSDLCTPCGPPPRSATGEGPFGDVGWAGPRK
Chain of hKQT2 and hKQT3 (O43526 whole entry): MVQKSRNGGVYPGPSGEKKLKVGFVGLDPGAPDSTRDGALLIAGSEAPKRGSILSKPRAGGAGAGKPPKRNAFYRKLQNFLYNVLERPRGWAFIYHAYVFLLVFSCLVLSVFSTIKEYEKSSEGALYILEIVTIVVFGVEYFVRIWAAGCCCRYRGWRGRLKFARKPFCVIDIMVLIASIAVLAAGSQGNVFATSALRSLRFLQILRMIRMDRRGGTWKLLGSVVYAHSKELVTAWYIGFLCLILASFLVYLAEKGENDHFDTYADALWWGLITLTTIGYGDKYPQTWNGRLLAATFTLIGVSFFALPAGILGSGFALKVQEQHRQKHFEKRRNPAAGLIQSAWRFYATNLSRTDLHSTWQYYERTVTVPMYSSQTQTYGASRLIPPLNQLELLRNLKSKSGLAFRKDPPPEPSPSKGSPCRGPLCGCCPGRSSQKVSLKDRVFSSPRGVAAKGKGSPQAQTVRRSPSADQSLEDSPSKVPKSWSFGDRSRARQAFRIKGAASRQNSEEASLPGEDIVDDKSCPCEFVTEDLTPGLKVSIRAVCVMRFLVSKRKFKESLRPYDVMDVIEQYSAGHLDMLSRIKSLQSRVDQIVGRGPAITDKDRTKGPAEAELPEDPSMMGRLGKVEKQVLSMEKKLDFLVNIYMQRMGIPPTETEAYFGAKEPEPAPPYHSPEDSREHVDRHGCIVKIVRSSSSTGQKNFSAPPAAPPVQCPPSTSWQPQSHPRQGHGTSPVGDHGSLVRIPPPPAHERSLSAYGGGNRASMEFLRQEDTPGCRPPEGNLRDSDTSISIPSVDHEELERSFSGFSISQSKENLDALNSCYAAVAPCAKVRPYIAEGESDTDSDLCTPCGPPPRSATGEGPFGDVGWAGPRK
Chain of hKQT2 and hKQT3 (O43525 whole entry): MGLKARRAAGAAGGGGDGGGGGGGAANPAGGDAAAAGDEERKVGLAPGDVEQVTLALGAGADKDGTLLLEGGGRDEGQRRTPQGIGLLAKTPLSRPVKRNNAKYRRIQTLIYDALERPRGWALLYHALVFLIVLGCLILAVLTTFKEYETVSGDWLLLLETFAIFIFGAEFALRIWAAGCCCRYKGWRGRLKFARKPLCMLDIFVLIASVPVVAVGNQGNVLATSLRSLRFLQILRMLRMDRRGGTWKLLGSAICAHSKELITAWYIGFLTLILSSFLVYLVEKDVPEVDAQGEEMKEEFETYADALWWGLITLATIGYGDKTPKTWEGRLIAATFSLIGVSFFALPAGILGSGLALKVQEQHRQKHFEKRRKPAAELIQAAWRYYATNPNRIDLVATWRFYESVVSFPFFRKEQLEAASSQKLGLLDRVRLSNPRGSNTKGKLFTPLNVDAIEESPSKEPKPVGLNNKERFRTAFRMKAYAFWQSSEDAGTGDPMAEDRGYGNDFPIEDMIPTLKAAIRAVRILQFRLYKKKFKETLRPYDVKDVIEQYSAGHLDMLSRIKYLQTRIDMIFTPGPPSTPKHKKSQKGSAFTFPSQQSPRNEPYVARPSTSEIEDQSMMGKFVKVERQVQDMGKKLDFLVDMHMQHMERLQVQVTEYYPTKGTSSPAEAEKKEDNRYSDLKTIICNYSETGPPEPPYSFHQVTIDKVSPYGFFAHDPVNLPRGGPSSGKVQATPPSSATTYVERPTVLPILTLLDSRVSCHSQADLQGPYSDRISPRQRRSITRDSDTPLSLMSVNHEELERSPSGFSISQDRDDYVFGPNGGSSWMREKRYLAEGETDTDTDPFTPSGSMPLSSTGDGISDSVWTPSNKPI

Q: Which results are given for `CC[N+](CC)(CC)CC.[Cl-]` [TEA, tetraethylammonium chloride]?
A: effect on apoptosis of mouse neocortical neurons ([1]; apoptosis induced by serum deprivation or staurosporine, attenuating outward K+ current): reduced apoptosis; block of hKQT2/hKQT3 current [2]: block by TEA; effect on Aβ-mediated toxicity [3]: block Aβ-mediated toxicity; IC50 [4]: 130 µM; slope factor of Hill fit, inhibition of SEQ ID NO:3 subunit ([4]; Hill fit to mean data points, FIG. 12D): 0.59; block of voltage-gated outward currents ([4]; externally applied, mammalian cells transfected with SEQ ID NO:2, FIG. 12D): blocked potently

Q: For `[Ba+2].[Cl-].[Cl-]` [barium], which “blocking of hKvQT2 (SEQ ID NO:3) channel” value ([4]; channel expressed in mammalian cells, properties match M-current) is on record?
A: blocking by barium

Q: With `CC1(C)Oc2ccc(C#N)cc2C(N2CCCC2=O)C1O` (centres unmarked) [cromakalim] as the compound, how does the “induction of neuronal apoptosis” value ([1]; 24 to 48 hours of exposure) read?
A: induced typical neuronal apoptosis

Q: And the “induction of apoptosis on exposure” value [1]?
A: induced apoptosis

Q: Which results are given for `CC(C)[C@@H]1NC(=O)[C@H](C)OC(=O)[C@@H](C(C)C)NC(=O)[C@@H](C(C)C)OC(=O)[C@H](C(C)C)NC(=O)[C@H](C)OC(=O)[C@@H](C(C)C)NC(=O)[C@@H](C(C)C)OC(=O)[C@H](C(C)C)NC(=O)[C@H](C)OC(=O)[C@@H](C(C)C)NC(=O)[C@@H](C(C)C)OC1=O` [valinomycin]?
A: induction of neuronal apoptosis in cortical cultures ([1]; 20 nM, 24 to 48 hours): induced typical neuronal apoptosis; induction of apoptosis on exposure [1]: induced apoptosis

Reference: US20060183105A1, “Human brain-derived tissue-specific potassium channel” (priority 1997, published 2006)
